Consider six compounds from article PMC6715681, “A high-throughput screen to identify novel synthetic lethal compounds for the treatment of E-cadherin-deficient cells” (Scientific Reports, 2019).

Marks after values point to notes of the source that are not given here.

The test system of test [1] is MCF10A WT and MCF10A CDH1^−/− cells. Nature of the test: Single-point confirmation screen (10 μM, CTB, 384-well), viability differential between isogenic lines. The conditions noted are these: averaged between three biological replicates, Supplementary Table 2. It is filed as cell-based, human. The procedure: In the single-point confirmation screen, compounds that preferentially harm MCF10A CDH1^−/− cells compared to the wild-type cells were now identified. Three biological replicates were performed for each of the isogenic cell lines at a single-point (10 μM) in 384-well plates. All assay plates had acceptable Z’ values above 0.4 and 23 out of 48 plates had values above 0.6. The POC R^2 correlation between the three biological replicates for the two isogenic cell lines were all above 0.8 (data not shown). A cell viability differential of ‘MCF10A WT POC – MCF10A CDH1^−/− POC’ was used to select hits. An arbitrary threshold for the mean differential of >8.5% was chosen in order to maximize the number of hits being screened in the subsequent stages and to reduce false negatives.
To incorporate a measure of the variability between replicates of the screen into the hit selection process, a further requirement was included of a minimum of 2/3 biological replicates having viability differentials >8.5%. This removed a further 52 compounds shown in blue with only one out of three biological replicates crossing the Y = X-8.5 line independent of the mean. In total, 256 compounds were above the hit selection threshold, thereby preferentially killing E-cadherin negative cells. The mean POC differential of the 256 hits was 17.6% +/− 7.1 (+/−SD), with the highest being 48% for SLEC-1 (Synthetic Lethal E-Cadherin compound 1). […] The resulting 256 SL compounds were then assayed in an 11-point screen for EC50 determination.
(§1) MCF10A WT and MCF10A CDH1^−/− cells were seeded into Corning black walled, clear bottom 384-well plates (assay plates) using a multidrop 384 reagent dispenser (Thermo Fisher Scientific) and a total volume of 50 μL per well.
As we have shown MCF10A CDH1^−/− cells have a prolonged lag to log phase growth of around 24 hours, in order to achieve a similar confluence at 72 hours post seeding MCF10A WT and MCF10A CDH1^−/− cell lines were seeded at 600 cells/well and 800 cells/well, respectively. […] At 72 hours post seeding, plates were removed from the incubator and left for 30 minutes at RT to equalise the temperature across all wells of the plates and reduce fluorescence-based edge effects before reading on an EnVision (PerkinElmer) at 550 nm excitation and 590 nm emission to quantify cell viability.
The coRFU values were then used to calculate the normalized readouts of percent of controls (Eq. 3) and the robust Z score (Eqs 4,5), where doxorubicin refers to an EC80 dose and DMSO was 0.2% v/v.3 coPOC=100×(SamplecoRFU−x¯doxorubicincoRFU)/(x¯DMSOcoRFU−x¯doxorubicincoRFU) 4 MAD=median([…]) 5 CorrectedrobustZscore=(SamplecoRFU−platemediancoRFU)/MAD

Test [2] concerns MCF10A CDH1^−/− cells. Nature of the test: 11-point dose-response screen, cell titre blue (CTB) viability. It is filed as cell-based, human. Particulars: for Differential at 20 μM: MCF10A WT – MCF10A CDH1−/− POC at 20 μM; for EC50: Homo sapiens, MCF-10A. The procedure: (§2) The 11-point dose-response screen evaluated a concentration range from 0.02 µM to 20 µM for both isogenic cell lines in duplicate biological replicates (Fig. 4). One limitation to metabolism-based cellular assays is that a change in read out (fluorescence, luminescence or absorbance) may not necessarily be caused by cell death and could instead result from a cessation of proliferation due to senescence or inhibited mitochondrial respiration. For this reason, a direct measurement of cell counts using cellular imaging of nuclei stained with Hoechst 33342 was also included at the 11-point screening stage. For the CTB 11-point screen all plates had acceptable Z’ values above 0.4, with the second biological replicate having 70% above 0.6 (Fig. 4A). The Z’ values for the high-content imaging (HCI) 11-point screen plates were above 0.4 for MCF10A WT, except one plate from biological replicate two with 0.396 (Fig. 4B). However, for MCF10A CDH1^−/− HCI data, only four plates were above a Z’ of 0.4 and the mean Z’ was 0.32 compared to a mean of 0.51 for MCF10A WT. A further quality metric known as the strictly standardized mean difference (SSMD)[40] is a less conservative approach for QC and a cut-off of >3 is generally used. The mean SSMD value was 7.04 for MCF10A WT and 5.27 for MCF10A CDH1^−/− plates and indicates the MCF10A CDH1^−/− HCI data was acceptable[41]. There was a good correlation between the top hits from the HCI and CTB 11-point screening with an overlap of 31 / 40 for the top 40 compounds selected from the eventual hit selection strategies.
as §1
(§3) As we have shown MCF10A CDH1^−/− cells have a prolonged lag to log phase growth of around 24 hours, in order to achieve a similar confluence at 72 hours post seeding MCF10A WT and MCF10A CDH1^−/− cell lines were seeded at 600 cells/well and 800 cells/well, respectively. Following seeding, plates were left for one hour at RT without stacking[46] and then centrifuged at 500 × g (RCF) for one minute. Plates were then transferred to an incubator at 37 °C and 5% CO2. At 24 hours post seeding, the MiniTrak robotic liquid handling system (Perkin Elmer) was used to transfer 352 compounds per 384-well library plate to the first 22 columns of a 384-well assay plate containing cells to achieve a 10 μM final compound concentration for the pilot, primary and single-point confirmation screens. For the 11-point dose-response screen, compounds were added to columns 1–22, but excluding edge rows A and P of the library plate to reduce edge-effects (Supplementary Fig. 2). The controls of DMSO (0.2% v/v), doxorubicin (EC80) and entinostat (EC50) were added into columns 23–24 of each assay plate (Supplementary Table 1). Cell titre blue[47] was made in-house in sterile PBS from 597 μM resazurin, 78 μM methylene blue, 1 mM potassium hexacyanoferrate (III) and 1 mM potassium hexacyanoferrate (II) trihydrate. At 69 hours post seeding, 16.7% v/v CTB was added to plates and they were incubated at 37 °C for 3 hours (Supplementary Fig. 1). At 72 hours post seeding, plates were removed from the incubator and left for 30 minutes at RT to equalise the temperature across all wells of the plates and reduce fluorescence-based edge effects before reading on an EnVision (PerkinElmer) at 550 nm excitation and 590 nm emission to quantify cell viability.
(§4) Supplementary Table 1. Killing control and SL control effective concentrations.
(§5) Doxorubicin EC80 0.3 µM 0.4 µM
(§6) MCF10A WT cells were seeded at 600/well and MCF10A CDH1-/- cells at 800/well in 384-well plates. Drugs
(§7) were added at 24 hours post seeding and CTB was used as an end-point assay. Concentrations were normalized

The subject of test [3] is MCF10A WT cells. The test is described as above. In kind it is cell-based, human. Particulars: for EC50 / activity at 20 µM: Homo sapiens, MCF-10A; for activity at 20 µM: viability of WT cells at highest concentration 20 μM, read-out: MCF10A WT POC at 20 μM. The procedure:
as §2, §1, §3, §4, §5, §6, §7

For test [4], the system named is MCF10A CDH1^−/− cells. The test can be described thus: Medium-throughput validation in 96-well plates, Hoechst-33342 nuclei counts (CellProfiler). Particulars: for EC50 ratio (MCF10A WT/MCF10A CDH1^−/−) / EC50: 96-well validation; for EC50: Homo sapiens, MCF-10A, Hoechst nuclei counts, at least five concentration points; for Differential at 5 µM (%): normalized cell counts MCF10A WT – MCF10A CDH1^−/−, 96-well, 48 h post compound addition. In kind it is cell-based, human. The procedure: (§8) Cells were seeded into each well of Corning’s black walled, clear bottom 96-well plates with a total volume of 100 μL per well. Edge wells were excluded. Both isogenic cell lines were seeded into the same plate to mitigate plate-to-plate variation. Plates for real-time analysis were transferred to the xCELLigence platform (ACEA Biosciences, USA) or the IncuCyte FLR imaging system (Essen BioScience, USA) as previously described.
(§9) Seventy-two hours post seeding (or 48 hours post compound addition), plates were assayed for cell viability using a one-step cocktail of PFA (0.25% v/v), saponin (0.075% w/v) and Hoechst 33342 (1 μg/ml final) as described previously. CellProfiler was used to enumerate cell counts as previously described.

In test [5] the test system is MCF10A WT cells. Nature of the test: 11-point dose-response screen, high-content imaging (HCI) of Hoechst 33342 nuclei. In kind it is cell-based. Particulars: Homo sapiens, MCF-10A, 11-point screen. The procedure:
as §2
(§10) A direct measurement of cell counts using cellular imaging of nuclei was also included at the 11-point screening stage. Plates were fixed, washed and stained using an ELx405 Select deep well washer (BioTek). Media was first aspirated leaving 10 μL/well, then 4% w/v PFA was added and plates left for 15 minutes at RT. Plates were then washed twice with PBS-T, before aspirating all permeabilization buffer and adding Hoechst 33342 (1 μg/mL final) in PBS. Plates were then stored in the dark at 4 °C, until being imaged on a BD Pathway 855. Two 10x images per well were taken and cell counts enumerated using CellProfiler[48].

Test [6] has as its system MCF10A WT cells. Nature of the test: Medium-throughput validation in 96-well plates, Hoechst-33342 nuclei counts (CellProfiler). It is filed as cell-based. Particulars: Homo sapiens, MCF-10A, 96-well validation, at least five concentration points. The procedure:
as §8, §9

Test [7] deals with MCF10A CDH1^−/− cells. The test can be described thus: 11-point dose-response screen, high-content imaging (HCI) of Hoechst 33342 nuclei. It is filed as cell-based, human. The conditions noted are these: Homo sapiens, MCF-10A; 11-point screen, HCI. The method, then: as §2, §10
The mark [8] stands for this setting: 11-point screen (0.02–20 µM), CTB values, averaged between two biological replicates, Supplementary Table 2, read-out: MCF10A CDH1 -/- EC50.
The mark [9] stands for this setting: 11-point screen (0.02–20 µM), CTB values, two biological replicates, for EC50 values > 20, a value of 20 was used, read-out: MCF10A WT EC50.
Setting [10] is: 11-point screen, CTB, read-out: MCF10A CDH1^-/- CTB EC50.
Where [11] appears, read: killing control, 384-well, CTB, 11-point curve, 72 hrs post seeding.

For `CCOc1ccc2nc(C)cc(SCC(O)C(=O)O)c2c1` (stereo not shown) [SLEC-20], the “Differential at 1-pt” value in test [1] was 23.81. Also, the “Differential at 20 μM” value in the test with MCF10A CDH1^−/− cells [2] (11-point screen) came to 70.17. Besides, the results for the EC50 in the test on MCF10A CDH1^−/− cells [2] (setting [8]) and in the test with MCF10A WT cells [3] (setting [9]) were 9.38 µM and above 20 µM, respectively. For the same compound, in the test on MCF10A WT cells [3] (11-point screen), the activity at 20 µM was 92.9%.

As to `COc1ccc2nc(C)cc(NCC(=O)Nc3cccc(C)c3C)c2c1` [SLEC-12], the “Differential at 1-pt” value in test [1] is given as 13.92. Also, the “EC50 ratio (MCF10A WT/MCF10A CDH1^−/−)” value in the test on MCF10A CDH1^−/− cells [4] came to 1.45. The EC50 in the test on MCF10A CDH1^−/− cells [4] is 8.98 µM; in the test with MCF10A WT cells [5] it was 12.6 µM; with MCF10A CDH1^−/− cells [2] (setting [10]) it was 3.06 µM; in the test on MCF10A WT cells [3] (setting [9]) it was 19.4 µM; with MCF10A WT cells [6] it was 13 µM; in the test on MCF10A CDH1^−/− cells [7] it was 2.45 µM. Also, in the test with MCF10A CDH1^−/− cells [4], the “Differential at 5 µM (%)” value worked out at 11.47%. Also, in the test on MCF10A CDH1^−/− cells [2] (11-point screen), the “Differential at 20 μM” value was 65.85. For the same compound, the “EC50 ratio between MCF10A WT and MCF10A CDH1^−/− cells” value in the test with MCF10A CDH1^−/− cells [2] (11-point screen, value corresponds to the CTB EC50s of Fig. 5) is reported as 6.34 fold change. In addition, in the test on MCF10A WT cells [3] (11-point screen), the activity at 20 µM turned out to be 45%.

Turning to `COc1cc(Cl)c(C)cc1NC(=O)c1ccc(CN2CCCC2)cc1` [SLEC-6], the “EC50 ratio (MCF10A WT/MCF10A CDH1^−/−)” value with MCF10A CDH1^−/− cells [4] is recorded as 1.56. Further, the EC50 in the test with MCF10A CDH1^−/− cells [4] was 14.5 µM; in the test on MCF10A WT cells [5], above 20 µM; in the test on MCF10A CDH1^−/− cells [2] (setting [10]) it was 17.3 µM; in the test on MCF10A WT cells [3] (11-point screen, CTB, read-out: MCF10A WT CTB EC50), above 20 µM; with MCF10A WT cells [6], 22.6 µM; in the test on MCF10A CDH1^−/− cells [7], 7.79 µM. For the same compound, the “Differential at 5 µM (%)” value in the test on MCF10A CDH1^−/− cells [4] is recorded as 20.78* %.

In the case of `COc1cccc2c1C(=O)c1c(O)c3c(c(O)c1C2=O)C[C@@](O)(C(=O)CO)C[C@@H]3O[C@H]1C[C@H](N)[C@H](O)[C@H](C)O1` [Doxorubicin, doxorubicin, reference compound], the “EC80, MCF10A CDH1-/-” value in the test on MCF10A CDH1^−/− cells [2] (setting [11]) is listed as 0.4 µM. Further, the “EC80, MCF10A WT” value in the test with MCF10A WT cells [3] (setting [11]) was 0.3 µM.

On to `Nc1ccccc1NC(=O)c1ccc(CNC(=O)OCc2cccnc2)cc1` [Entinostat, entinostat, reference compound], for which the EC50 in the test on MCF10A CDH1^−/− cells [2] (SL control, 384-well, CTB, 11-point curve, 72 hrs post seeding, read-out: EC50, MCF10A CDH1-/-) turned out to be 2.4 µM; in the test with MCF10A WT cells [3] (SL control, 384-well, CTB, 11-point curve, 72 hrs post seeding, read-out: EC50, MCF10A WT), 3.2 µM.

Consider `COc1ccc2nccc(Nc3cccc(C(C)=O)c3)c2c1` [SLEC-2], for which, in test [1], the “Differential at 1-pt” value is on record as 39.99. Also, the “Differential at 20 μM” value with MCF10A CDH1^−/− cells [2] (11-point screen) is given as 49.66. For the same compound, the values for the EC50 with MCF10A CDH1^−/− cells [2] (setting [8]) and in the test on MCF10A WT cells [3] (setting [9]) were 3.21 µM and 17.7 µM, respectively. Also, the activity at 20 µM with MCF10A WT cells [3] (11-point screen) stood at 42.3%.
